Structures can show the parent of a compound that is named as a salt. Where two headings read alike, the source gives them in different places.
Experiments:
Format in all cases: cell-based
[1] = tested on: E. coli ATCC 25922; experiment: MIC, CLSI broth microdilution (Table 2); details: Escherichia coli
[2] = tested on: H. influenzae ATCC 49247; experiment: MIC, CLSI broth microdilution (Table 2); details: Haemophilus influenzae
[3] = tested on: Bacillus anthracis Ames strain; experiment: microbe, parasite or virus in culture
[4] = tested on: E. faecium ATCC 19434; experiment: MIC, CLSI broth microdilution (Table 1); details: Enterococcus faecium
[5] = tested on: S. pneumonia ATCC 49619; experiment: MIC, CLSI broth microdilution (Table 1); details: Streptococcus pneumoniae
[6] = tested on: Francisella tularensis Schu S4; experiment: microbe, parasite or virus in culture; details: SCHUS4
[7] = tested on: E. faecalis ATCC 29212; experiment: MIC, CLSI broth microdilution (Table 1); details: Enterococcus faecalis
[8] = tested on: S. maltophilia ATCC 17677; experiment: MIC, CLSI broth microdilution (Table 2); details: Stenotrophomonas maltophilia
[9] = tested on: Yersinia pestis C092; experiment: microbe, parasite or virus in culture
[10] = tested on: S. aureus ATCC 43300 (MRSA, FQ-S); experiment: MIC, CLSI broth microdilution (Table 1); details: Staphylococcus aureus, read-out: MIC S. aureus ATCC 43300 (MRSA, FQ-S)
[11] = tested on: K. pneumoniae ATCC 33495; experiment: MIC, CLSI broth microdilution (Table 2); details: Klebsiella pneumoniae
[12] = tested on: S. aureus BAA-1720 (MRSA, FQ-R); experiment: MIC, CLSI broth microdilution (Table 1); details: Staphylococcus aureus, read-out: MIC S. aureus BAA-1720 (MRSA, FQ-R)
[13] = tested on: Brucella abortus ATCC 23448; experiment: microbe, parasite or virus in culture; details: ATCC23448
[14] = tested on: Burkholderia mallei ATCC 23344; experiment: microbe, parasite or virus in culture; details: ATCC23344
[15] = tested on: P. aeruginosa ATCC 27853; experiment: MIC, CLSI broth microdilution (Table 2); details: Pseudomonas aeruginosa
[16] = tested on: A. baumannii ATCC 19606; experiment: MIC, CLSI broth microdilution (Table 2); details: Acinetobacter baumannii
[17] = tested on: S. aureus ATCC 25923; experiment: MIC, CLSI broth microdilution (Table 1); details: Staphylococcus aureus
[18] = tested on: Burkholderia pseudomallei ATCC 23343; experiment: microbe, parasite or virus in culture; details: ATCC23343
[19] = ATCC25922, Gram negative, MHB, 37° C., 16-20 hours, read-out: MIC E. coli ATCC 25922
[20] = ATCC49247, Gram negative, MHB, 37° C., 16-20 hours, read-out: MIC H. influenzae ATCC 49247
[21] = ATCC19434, Gram positive, MHB, 37° C., 16-20 hours, read-out: MIC E. faecium ATCC 19434
[22] = ATCC49619, read-out: MIC S. pneumonia ATCC 49619
[23] = ATCC29212, Gram positive, MHB, 37° C., 16-20 hours, read-out: MIC E. faecalis ATCC 29212
[24] = ATCC17677, read-out: MIC S. maltophilia ATCC 17677
[25] = Gram positive, MHB, 37° C., 16-20 hours
[26] = ATCC33495, read-out: MIC K. pneumoniae ATCC 33495
[27] = ATCC27853, Gram negative, MHB, 37° C., 16-20 hours, read-out: MIC P. aeruginosa ATCC 27853
[28] = ATCC19606, read-out: MIC A. baumannii B. ATCC 19606
[29] = ATCC25923, Gram positive, MHB, 37° C., 16-20 hours, read-out: MIC S. aureus ATCC 25923
[30] = ATCC49619, Gram positive, MHB, 37° C., 16-20 hours, read-out: MIC S. pneumonia ATCC 49619
[31] = ATCC29212, read-out: MIC E. faecalis ATCC 29212
[32] = ATCC17677, Gram negative, MHB, 37° C., 16-20 hours, read-out: MIC S. maltophilia ATCC 17677
[33] = ATCC19606, Gram negative, MHB, 37° C., 16-20 hours, read-out: MIC A. baumannii B. ATCC 19606
[34] = ATCC25922, read-out: MIC E. coli ATCC 25922
[35] = ATCC33495, Gram negative, MHB, 37° C., 16-20 hours, read-out: MIC K. pneumoniae ATCC 33495
[36] = ATCC49247, read-out: MIC H. influenzae ATCC 49247
[37] = ATCC19434, read-out: MIC E. faecium ATCC 19434
[38] = ATCC27853, read-out: MIC P. aeruginosa ATCC 27853
[39] = ATCC25923, read-out: MIC S. aureus ATCC 25923

Row | Compound | MIC [1, 19] [mg/L] | MIC [2, 20] [mg/L] | MIC [3] [mg/L] | MIC [4, 21] [mg/L] | MIC [5, 22] [mg/L] | MIC [6] [mg/L] | MIC [7, 23] [mg/L] | MIC [8, 24] [mg/L] | MIC [9] [mg/L] | MIC [10, 25] [mg/L] | MIC [11, 26] [mg/L] | MIC [12, 25] [mg/L] | MIC [13] [mg/L] | MIC [14] [mg/L] | MIC [15, 27] [mg/L] | MIC [17, 29] [mg/L] | MIC [18] [mg/L] | MIC [5, 30] [mg/L] | MIC [8, 32] [mg/L] | MIC [16, 33] [mg/L] | further results
1 | Cc1c(-c2ccc(F)c(N)c2)ccn2c(=O)c(C(=O)O)cc(C3CC3)c12 [Example 8 K salt, 8-(3-amino-4-fluoro-phenyl)-1-cyclopropyl-9-methyl-4-oxo-4H-quinolizine-3-carboxylic acid] | 0.032 to 0.064 | 0.064 | 0.008 | 0.5 | 0.125 | 0.031 | 0.032 | 0.125 | 0.031 | 0.008 | 0.125 | 0.25 | 0.063 | 0.25 | 2 | 0.008 | 0.125 | – | – | – | MIC [16, 28]: 0.064 to 0.125 mg/L
2 | Cc1c(-c2ccnc(F)c2)ccn2c(=O)c(C(=O)O)cc(C3CC3)c12 [Example 20 K salt, 1-cyclopropyl-8-(2-fluoro-pyridin-4-yl)-9-methyl-4-oxo-4H-quinolizine-3-carboxylic acid] | 0.064 | ≤ 0.004 | 0.031 | 1 | – | 0.008 to 0.016 | – | – | 0.063 | 0.016 | 0.125 to 0.25 | 1 | 0.063 | 0.125 | 2 to 4 | 0.032 | 0.25 | 0.25 | 0.25 | 0.25 | MIC [7, 31]: 0.125 mg/L
3 | Cc1c(-c2cccc(N)c2)ccn2c(=O)c(C(=O)O)cc(C3CC3)c12 [Example 3 K salt, 8-(3-amino-phenyl)-1-cyclopropyl-9-methyl-4-oxo-4H-quinolizine-3-carboxylic acid] | – | 0.016 | 0.008 | 1 | – | 0.031 | 0.064 | – | 0.031 to 0.063 | 0.016 | – | 0.5 | 0.125 | 0.5 to 1 | 2 | 0.016 | 0.25 | 0.25 | 0.25 | 0.25 | MIC [1, 34]: 0.064 to 0.125 mg/L; MIC [11, 35]: 0.25 mg/L
4 | Cc1c(-c2ccc(N)nc2)ccn2c(=O)c(C(=O)O)cc(C3CC3)c12 [Example 21 K salt, 8-(6-amino-pyridin-3-yl)-1-cyclopropyl-9-methyl-4-oxo-4H-quinolizine-3-carboxylic acid] | – | – | 0.016 | – | 0.032 | 0.031 | – | 0.125 | 0.031 | – | 0.064 | – | 0.063 | 0.125 to 0.25 | – | – | 0.25 to 0.5 | – | – | – | MIC [1, 34]: 0.016 to 0.032 mg/L; MIC [2, 36]: ≤ 0.004 mg/L; MIC [4, 37]: 0.5 mg/L; MIC [7, 31]: 0.032 mg/L; MIC [10]: 0.008 mg/L; MIC [12]: 0.25 mg/L; MIC [15, 38]: 1 to 2 mg/L; MIC [16, 28]: 0.064 to 0.125 mg/L; MIC [17, 39]: 0.008 mg/L
5 | Cc1c(-c2ccc(O)cc2)ccn2c(=O)c(C(=O)O)cc(C3CC3)c12 [Example 46 K salt, 1-cyclopropyl-8-(4-hydroxy-phenyl)-9-methyl-4-oxo-4H-quinolizine-3-carboxylic acid] | – | – | 0.004 | – | 0.032 | 0.016 | – | 0.125 | 0.008 to 0.016 | – | 0.064 | – | 0.031 | 0.063 | – | – | 0.063 | – | – | – | MIC [1, 34]: 0.032 mg/L; MIC [2, 36]: ≤ 0.004 mg/L; MIC [4, 37]: 0.25 mg/L; MIC [7, 31]: 0.016 mg/L; MIC [10]: ≤ 0.004 mg/L; MIC [12]: 0.125 mg/L; MIC [15, 38]: 1 to 2 mg/L; MIC [16, 28]: 0.064 mg/L; MIC [17, 39]: ≤ 0.004 mg/L
6 | Cc1c(-c2cc(N)cc(F)c2)ccn2c(=O)c(C(=O)O)cc(C3CC3)c12 [Example 9 K salt, 8-(3-amino-5-fluoro-phenyl)-1-cyclopropyl-9-methyl-4-oxo-4H-quinolizine-3-carboxylic acid] | 0.064 | 0.008 | 0.008 | 0.5 | – | 0.016 | 0.032 | – | 0.031 | 0.008 | 0.125 to 0.25 | 0.25 | 0.063 | 0.125 to 0.25 | 2 | 0.008 | 0.25 | 0.064 | 0.25 | 0.125 | –
7 | Cc1c(-c2ccc(Cl)cc2)ccn2c(=O)c(C(=O)O)cc(C3CC3)c12 [Example 45 K salt, 1-cyclopropyl-8-(4-chloro-phenyl)-9-methyl-4-oxo-4H-quinolizine-3-carboxylic acid] | 0.25 | 0.016 | 0.016 | 0.5 to 1 | – | 0.008 to 0.016 | 0.064 | – | 0.031 | 0.016 | – | 0.5 | 0.031 | 0.063 to 0.125 | 2 | 0.016 to 0.032 | 0.063 to 0.125 | 0.25 | 0.25 | 0.25 | MIC [11, 35]: 0.5 to 1 mg/L

Reference: US20150141435A1, “2-PYRIDONE ANTIMICROBIAL COMPOSITIONS” (Emergent BioSolutions, priority 2010, published 2015)
